Here are results for 3 compounds from patent US20220281819A1, “THERAPEUTIC COMPOUNDS AND METHODS OF USE” (priority 2020, published 2022).

Structures are written as SMILES.

TEAD2, sequence (Q15562 whole entry, species assumed): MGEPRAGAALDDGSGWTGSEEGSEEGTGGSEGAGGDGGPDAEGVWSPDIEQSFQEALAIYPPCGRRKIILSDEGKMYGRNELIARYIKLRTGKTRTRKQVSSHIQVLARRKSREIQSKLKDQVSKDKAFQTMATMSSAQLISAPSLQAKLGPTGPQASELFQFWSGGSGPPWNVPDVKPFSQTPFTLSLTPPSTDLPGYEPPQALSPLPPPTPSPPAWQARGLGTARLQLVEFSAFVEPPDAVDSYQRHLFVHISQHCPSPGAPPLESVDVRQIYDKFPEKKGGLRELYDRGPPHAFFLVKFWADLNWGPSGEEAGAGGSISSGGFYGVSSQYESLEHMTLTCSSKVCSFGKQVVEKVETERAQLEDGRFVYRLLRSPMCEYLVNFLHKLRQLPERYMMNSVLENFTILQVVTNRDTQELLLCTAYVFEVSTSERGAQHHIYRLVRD

For the experiment, the target named is TEAD2 (Homo sapiens, UniProt Q15562). Briefly: TEAD2 Lipid + 4 hr HTRF WUXI (TR-FRET lipid pocket probe competition, 4 h pre-incubation). The note with it: 4 hours pre-incubation with compound at room temperature; Table 3. The class given is binding. The method, then:
His-tagged TEAD2 or 4 proteins are pre-incubated with TEAD project compounds for 4 hours at room temperature. Biotinylated lipid pocket probes are then added to the TEAD/Compound mixture and incubated for 60 minutes at room temperature. The lipid pocket probe competes with the test compound for the TEAD lipid pocket until equilibrium is reached. After 60 minutes, Europium labelled anti-His (Perkin Elmer #AD0110) and XL665 labelled streptavidin (CIS Bio 610SAXAC) are added to the TEAD/test compound/lipid pocket mixture and incubated for 30 minutes. TR-FRET values are then measured using an EnVision multi-label plate reader (Perkin Elmer Cat#2104-0010A.) If the lipid pocket probe binds to TEAD as expected, a TR-FRET signal results from the proximity of anti-His Eu and XL665. If a TEAD lipid pocket binder such as binds and displaces the lipid pocket probe, the disruption of the TEAD:probe interaction results in a decrease in TR-FRET signal. The potency of compounds as TEAD lipid pocket binders is determined by IC50 value generated using a non-linear 4 parameter curve fit.
Take `C=CC(=O)Nc1cc(-c2ccc(OC(F)(F)F)cc2)c2c(c1CO)CCO2` [Final product from Example 53, N-(4-(Hydroxymethyl)-7-(4-(trifluoromethoxy)phenyl)-2,3-dihydrobenzofuran-5-yl)acrylamide]: the IC50 is 3.4 nM.
The result for `C=CC(=O)Nc1cc(-c2ccc(S(F)(F)(F)(F)F)cc2)c2c(c1CO)CCO2` [Final product from Example 54, N-[4-(Hydroxymethyl)-7-[4-(pentafluoro-6-sulfanyl)phenyl]-2,3-dihydrobenzofuran-5-yl]prop-2-enamide] reads 8.6 nM.
The result for `C=CC(=O)Nc1cc(-c2ccc(OC(F)(F)F)cc2)c2ncsc2c1C#N` [Final product from Example 55, N-(7-Cyano-4-(4-(trifluoromethoxy)phenyl)benzo[d]thiazol-6-yl)acrylamide] reads 18.9 nM.
